# Data published in patent US10011571B2, “Preparation method for aromatic heterocyclic compound used as selective JAK3 and/or JAK1 kinase inhibitor and application of aromatic heterocyclic compound” (SHENZHEN CHIPSCREEN BIOSCIENCES, LTD., priority 2014, dated 2018).
# How the values were obtained:
# [1] = molecular target: JAK3 (Homo sapiens (Human), UniProt P52333); test: Z'-LYTE enzymatic activity detection, JAK3; format: biochemical; conditions: test compound 30 nM; for inhibition at 0.03 µM: read-out: JAK3 % inhibitory rate @30 nM
# Sequence of JAK3 (P52333 whole entry): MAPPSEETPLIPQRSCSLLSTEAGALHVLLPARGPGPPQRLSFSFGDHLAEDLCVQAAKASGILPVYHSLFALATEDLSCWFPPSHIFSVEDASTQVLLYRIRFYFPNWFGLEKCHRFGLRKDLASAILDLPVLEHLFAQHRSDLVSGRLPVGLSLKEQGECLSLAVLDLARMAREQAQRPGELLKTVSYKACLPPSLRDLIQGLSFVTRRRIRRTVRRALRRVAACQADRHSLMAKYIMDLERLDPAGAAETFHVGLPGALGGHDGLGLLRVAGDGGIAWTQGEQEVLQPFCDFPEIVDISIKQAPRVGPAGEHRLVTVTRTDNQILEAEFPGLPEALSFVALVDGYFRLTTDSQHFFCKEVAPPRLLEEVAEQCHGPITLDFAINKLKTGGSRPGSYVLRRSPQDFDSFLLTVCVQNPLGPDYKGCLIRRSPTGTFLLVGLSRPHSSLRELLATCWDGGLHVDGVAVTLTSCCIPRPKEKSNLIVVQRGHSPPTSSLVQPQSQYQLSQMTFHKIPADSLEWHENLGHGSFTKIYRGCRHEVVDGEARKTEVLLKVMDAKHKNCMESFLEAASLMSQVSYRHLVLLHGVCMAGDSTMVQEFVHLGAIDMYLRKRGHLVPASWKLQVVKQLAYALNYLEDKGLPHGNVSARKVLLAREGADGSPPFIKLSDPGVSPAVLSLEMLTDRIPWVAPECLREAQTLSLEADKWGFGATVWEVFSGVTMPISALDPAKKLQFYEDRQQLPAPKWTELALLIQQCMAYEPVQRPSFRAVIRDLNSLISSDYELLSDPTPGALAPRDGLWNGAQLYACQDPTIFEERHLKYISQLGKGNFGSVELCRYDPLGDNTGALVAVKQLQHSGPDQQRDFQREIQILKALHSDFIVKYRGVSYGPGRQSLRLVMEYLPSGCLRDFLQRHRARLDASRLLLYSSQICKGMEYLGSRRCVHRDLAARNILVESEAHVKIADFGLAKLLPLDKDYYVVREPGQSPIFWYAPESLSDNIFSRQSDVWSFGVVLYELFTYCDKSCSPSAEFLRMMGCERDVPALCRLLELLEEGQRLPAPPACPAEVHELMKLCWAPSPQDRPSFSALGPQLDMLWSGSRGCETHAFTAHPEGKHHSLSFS
# Method in brief: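 GST-tagged human recombinant kinases with Z′-LYTE peptides (Tyr6 for JAK1, Tyr4 for JAK2 and JAK3), ATP from kit, reacted 1 h at room temperature; development 1 h, ratio 445/520 nm at 400 nm excitation gives phosphorylation. Inhibition vs solvent control at 30 nM (JAK2, JAK3) or 300 nM (JAK1); tofacitinib as positive control.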
# [2] = system: IL-2/JAK1 & 3/STAT5 (hPBC); test: Intracellular activity assay, IL-2 induced STAT5 phosphorylation in hPBC; format: cell-based; conditions: Homo sapiens; inhibition of STAT5 phosphorylation, activated hPBC, IL-2 10 ng/mL
# Text: In this experiment, western blot (WB) and flow cytometry are used to evaluate the intracellular activities of the test compounds by comparing the relative levels of the signals of phosphorylated and non-phosphorylated STATs in 5 cell models, including U937, THP-1, CTLL-2, UT-7/EPO and activated human periphery blood cell (hPBC). The primary antibody and secondary antibody used in WB hybridization in this experiment are purchased from Cell Signaling Company (http://www.cellsignal.com). The fluorescence-labeled antibodies used in flow cytometry are purchased from eBiosciences Company (http://www.ebioscience.com).
# Cytokine IL-2 dependent proliferation is formed after activation by co-stimulation of human periphery blood cell (hPBC) with CD3 antibody. The growth signal pathway is mediated by the heterodimer of JAK1/3 and induces the phosphorylation of downstream STAT5. The intracellular inhibitory activity of the compounds on JAK1/3 can be evaluated by detecting the change of the phosphorylation level of STAT5.
# (1) Treatment by the compound: the experiment is carried out in a 6-well plate. […]
# (2) Cell fixation and fluorescence labeling: the cells are fixed using paraformaldehyde (30 min), and subsequently treated for membrane permeability in chilled methanol (15 min). […]
# (3) Detection by flow cytometry: the detection is carried out using Guava® easyCyte flow cytometer according to the instruction. The median fluorescent intensity (MFI) of a sample is detected using an appropriate cell population. On such a basis, the relative signal intensities are calculated for the phosphorylated STATs treated by the compounds at different concentrations by reference to the signal of the negative (with no factor stimulation) and the positive control (with both factor stimulation and solvent control) in the experiment, so that the IC50 of the compound for the inhibitory activity on STATs phosphorylation can be evaluated.
SMILES,JAK3 RV (ratio between the inhibitory rate of the test compound and that of Xeljanz) [1],inhibition at 0.03 µM [1] [%],IC50 [2] [nM]
"C=CC(=O)N(C)c1cc(Nc2ncc(Cl)c(NCCCNC(=O)c3ccc(C#N)cc3)n2)ccc1F [Example 7, N-(3-(5-chloro-2-(4-fluoro-3-(N-methylacrylamido)phenylamino)pyrimidinyl-4-amino)propyl)-4-cyano-benzamide]",0.84,63,160
"C=CC(=O)N(C)c1cc(Nc2ncc(Cl)c(NCCCNC(=O)c3ccc(C(F)(F)F)cc3)n2)ccc1F [Example 22, N-(3-(5-chloro-2-(4-fluoro-3-(N-methylacrylamido)phenylamino)pyrimidinyl-4-amino)propyl)-4-trifluoromethylbenzamide]",0.82,75,200
"C=CC(=O)N(C)c1cc(Nc2ncc(Cl)c(NCCCNC(=O)c3ccc(F)cc3)n2)ccc1F [Example 23, N-(3-(5-chloro-2-(4-fluoro-3-(N-methylacrylamido)phenylamino)pyrimidinyl-4-amino)propyl)-4-fluorobenzamide]",0.88,81,240
